Earlier results in US8278268B2, “Combination therapy comprising glucose reabsorption inhibitors and PPAR modulators” (Ortho-McNeil Pharmaceutical, Inc., priority 2001, dated 2012).
Where two headings read alike, the source gives them in different places.

Columns and labels:
SGLT2 (SAAT1) = conditions: cited from earlier work; for Km: for D-glucose
SGLT1 = SGLT1 (Homo sapiens, UniProt P13866); conditions: read-out: Km in vitro; Sm. Intestine; stoichiometry 2:1; for D-glucose; cited from earlier work
SGLT1, sequence (P13866 whole entry, species assumed): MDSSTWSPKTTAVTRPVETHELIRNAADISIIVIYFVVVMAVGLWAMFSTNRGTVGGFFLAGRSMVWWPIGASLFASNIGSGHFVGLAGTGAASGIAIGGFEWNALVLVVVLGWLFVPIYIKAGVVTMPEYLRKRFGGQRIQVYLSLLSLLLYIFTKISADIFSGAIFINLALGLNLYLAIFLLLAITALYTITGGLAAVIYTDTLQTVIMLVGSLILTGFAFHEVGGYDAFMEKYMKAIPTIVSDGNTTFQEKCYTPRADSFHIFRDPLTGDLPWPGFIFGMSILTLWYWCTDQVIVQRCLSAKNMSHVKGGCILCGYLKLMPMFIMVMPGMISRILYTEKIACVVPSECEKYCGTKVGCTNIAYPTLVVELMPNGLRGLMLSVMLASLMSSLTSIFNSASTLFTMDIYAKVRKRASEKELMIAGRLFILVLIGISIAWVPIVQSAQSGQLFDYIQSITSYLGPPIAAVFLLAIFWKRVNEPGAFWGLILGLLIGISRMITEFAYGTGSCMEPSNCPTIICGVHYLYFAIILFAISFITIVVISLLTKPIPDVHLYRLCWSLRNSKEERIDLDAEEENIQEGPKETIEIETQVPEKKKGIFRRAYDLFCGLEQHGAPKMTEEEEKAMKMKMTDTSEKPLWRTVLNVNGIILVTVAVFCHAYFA

O=C[C@H](O)[C@@H](O)[C@H](O)[C@H](O)CO [D-glucose]
TmG in vitro (maximal transport rate) (SGLT2 (SAAT1); Kidney (S1, S3), stoichiometry 2:1): 7.9 pmol/min/mm | Km (SGLT2 (SAAT1); Kidney (S1, S3), stoichiometry 2:1, read-out: Km in vitro): 390 µM | Km (SGLT2 (SAAT1); Kidney (S1, S3), stoichiometry 2:1, read-out: Km in vivo): 300 µM | TmG in vitro (maximal transport rate) (SGLT2 (SAAT1); Kidney (S3), stoichiometry 1:1): 83 pmol/min/mm | Km (SGLT2 (SAAT1); Kidney (S3), stoichiometry 1:1, read-out: Km in vitro): 1640 µM | Km (SGLT2 (SAAT1); Kidney (S3), stoichiometry 1:1, read-out: Km in vivo): 6000 µM | Km (SGLT1): 100 µM
